Assay results taken from ChEMBL document CHEMBL1201862, “PubChem BioAssay data set” (2004).
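Five compound concentrations were applied to cells in 96-well plates for 48 hours; endpoints were derived by simple linear interpolation of the resulting dose-response curve. GI50 = concentration required for 50% inhibition of growth.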 Calls of active or inactive are those of the source. Cut-off read from the data, not from the text of the source: active = GI50 up to about 1.1 µM and inactive = higher.

Key:
Experiment in all cases: inhibition of tumour cell growth, NCI panel, 48 h
[1] = tested on: PC-3
[2] = tested on: MOLT-4
[3] = tested on: NCI-H460
[4] = tested on: COLO 205
[5] = tested on: EKVX
[6] = tested on: NCI/ADR-RES
[7] = tested on: RXF 393
[8] = tested on: A549
[9] = tested on: DU-145
[10] = tested on: M14
[11] = tested on: Malme-3M
[12] = tested on: UACC-257
[13] = tested on: HCT-15
[14] = tested on: TK-10
[15] = tested on: SN12C
[16] = tested on: HOP-62
[17] = tested on: RPMI-8226
[18] = tested on: KM12
[19] = tested on: OVCAR-3

Compound: Cn1c2ccccc2c2c3c(c4c5ccccc5n(C)c4c21)C(=O)NC3=O
- GI50 [1]: > 31.4 µM (inactive)
- GI50 [2]: > 100 µM (inactive)
- GI50 [3]: 7.6 µM (inactive)
- GI50 [4]: > 72.6 µM (inactive)
- GI50 [5]: 10.9 µM (inactive)
- GI50 [6]: > 45.3 µM (inactive)
- GI50 [7]: 0.0589 µM (active)
- GI50 [8]: > 19.7 µM (inactive)
- GI50 [9]: > 100 µM (inactive)
- GI50 [10]: > 41.3 µM (inactive)
- GI50 [11]: 20.5 µM (inactive)
- GI50 [12]: > 65.2 µM (inactive)
- GI50 [13]: > 100 µM
- GI50 [14]: 18.2 µM (inactive)
- GI50 [15]: > 37.9 µM (inactive)
- GI50 [16]: 12.2 µM (inactive)
- GI50 [17]: > 51.9 µM (inactive)
- GI50 [18]: 3.96 µM (inactive)

Compound: NC(=O)c1ccc(C(=O)Nc2ccc([As](=O)(O)O)cc2)cc1
- GI50 [1]: > 100 µM (inactive)
- GI50 [2]: > 100 µM (inactive)
- GI50 [3]: > 100 µM (inactive)
- GI50 [4]: > 100 µM (inactive)
- GI50 [5]: > 100 µM (inactive)
- GI50 [6]: > 100 µM (inactive)
- GI50 [7]: > 100 µM (inactive)
- GI50 [8]: > 100 µM (inactive)
- GI50 [9]: > 100 µM (inactive)
- GI50 [10]: > 100 µM (inactive)
- GI50 [11]: > 100 µM (inactive)
- GI50 [13]: > 100 µM
- GI50 [19]: > 100 µM (inactive)
- GI50 [14]: > 100 µM (inactive)
- GI50 [15]: > 100 µM (inactive)
- GI50 [16]: > 100 µM (inactive)
- GI50 [17]: > 100 µM (inactive)
- GI50 [18]: > 100 µM (inactive)

Compound: CCOC(=O)c1cc2c(=Cc3ccc(N(C)C)cc3)c3ccccc3n2[n+]1C
- GI50 [1]: 0.574 µM (active)
- GI50 [2]: 1.9 µM (inactive)
- GI50 [3]: 2.44 µM (inactive)
- GI50 [4]: 0.309 µM (active)
- GI50 [5]: 4.97 µM (inactive)
- GI50 [6]: > 100 µM (inactive)
- GI50 [7]: 1.63 µM (inactive)
- GI50 [8]: 3.71 µM (inactive)
- GI50 [9]: 1.38 µM (inactive)
- GI50 [10]: 3.15 µM (inactive)
- GI50 [12]: 1.57 µM (inactive)
- GI50 [13]: 10.4 µM
- GI50 [19]: 0.206 µM (active)
- GI50 [14]: 7.67 µM (inactive)
- GI50 [15]: < 0.01 µM (active)
- GI50 [16]: < 0.01 µM (active)
- GI50 [17]: 0.301 µM (active)

Compound: N#Cc1c(C#N)c(-c2ccco2)n(-c2ccccc2)c1N
- GI50 [1]: > 100 µM (inactive)
- GI50 [2]: > 100 µM (inactive)
- GI50 [4]: > 100 µM (inactive)
- GI50 [5]: 45 µM (inactive)
- GI50 [6]: 31.8 µM (inactive)
- GI50 [7]: > 100 µM (inactive)
- GI50 [8]: 59.2 µM (inactive)
- GI50 [9]: > 100 µM (inactive)
- GI50 [10]: > 100 µM (inactive)
- GI50 [11]: > 100 µM (inactive)
- GI50 [12]: > 100 µM (inactive)
- GI50 [13]: > 100 µM
- GI50 [19]: > 100 µM (inactive)
- GI50 [14]: > 100 µM (inactive)
- GI50 [15]: > 100 µM (inactive)
- GI50 [16]: > 100 µM (inactive)
- GI50 [17]: > 100 µM (inactive)
- GI50 [18]: > 100 µM (inactive)

Compound: O=C(/C=C/c1ccc(O)c(O)c1)c1cc(O)cc(O)c1
- GI50 [1]: 13.5 µM (inactive)
- GI50 [2]: 4.91 µM (inactive)
- GI50 [4]: 17.2 µM (inactive)
- GI50 [5]: 20.6 µM (inactive)
- GI50 [6]: 16.1 µM (inactive)
- GI50 [7]: 10.4 µM (inactive)
- GI50 [8]: > 100 µM (inactive)
- GI50 [9]: 18.1 µM (inactive)
- GI50 [10]: 14 µM (inactive)
- GI50 [11]: 14.4 µM (inactive)
- GI50 [12]: 10.7 µM (inactive)
- GI50 [13]: 15.7 µM
- GI50 [19]: 13.2 µM (inactive)
- GI50 [14]: 15.3 µM (inactive)
- GI50 [15]: 13 µM (inactive)
- GI50 [16]: 21.4 µM (inactive)
- GI50 [17]: 71.6 µM (inactive)

Compound: CSc1c(C#N)c(O)n(-c2ccc(Cl)cc2)c(=O)c1C#N
- GI50 [1]: > 100 µM (inactive)
- GI50 [2]: 76.4 µM (inactive)
- GI50 [3]: > 100 µM (inactive)
- GI50 [4]: > 100 µM (inactive)
- GI50 [5]: > 100 µM (inactive)
- GI50 [6]: 77.3 µM (inactive)
- GI50 [7]: > 100 µM (inactive)
- GI50 [8]: 80.4 µM (inactive)
- GI50 [9]: > 100 µM (inactive)
- GI50 [10]: > 100 µM (inactive)
- GI50 [11]: > 100 µM (inactive)
- GI50 [12]: > 100 µM (inactive)
- GI50 [13]: 97.9 µM
- GI50 [19]: > 100 µM (inactive)
- GI50 [14]: > 100 µM (inactive)
- GI50 [15]: > 100 µM (inactive)
- GI50 [17]: 39.5 µM (inactive)
- GI50 [18]: 36 µM (inactive)

Compound: Cc1cc(N(CCCCl)CCCCl)ccc1/C=N/c1cccc(Cl)c1
- GI50 [1]: 12 µM (inactive)
- GI50 [2]: 4.41 µM (inactive)
- GI50 [3]: 0.977 µM (active)
- GI50 [4]: 11.5 µM (inactive)
- GI50 [6]: 14.2 µM (inactive)
- GI50 [7]: 11.5 µM (inactive)
- GI50 [8]: 12.3 µM (inactive)
- GI50 [9]: 14.7 µM (inactive)
- GI50 [10]: 18.5 µM (inactive)
- GI50 [11]: 8.79 µM (inactive)
- GI50 [12]: 0.428 µM (active)
- GI50 [13]: 13.6 µM
- GI50 [19]: 14.5 µM (inactive)
- GI50 [14]: 10.6 µM (inactive)
- GI50 [15]: 16.7 µM (inactive)
- GI50 [17]: < 0.01 µM (active)
- GI50 [18]: 13.5 µM (inactive)

Compound: CC1CNC(c2ccc(CN3CCC(CCCC4CCN(Cc5ccc(C6=NC(C)CN6)cc5)CC4)CC3)cc2)=N1 (stereo unspecified)
- GI50 [1]: 36.8 µM (inactive)
- GI50 [2]: 19.4 µM (inactive)
- GI50 [3]: 18.5 µM (inactive)
- GI50 [4]: 17.6 µM (inactive)
- GI50 [5]: 32.2 µM (inactive)
- GI50 [6]: > 100 µM (inactive)
- GI50 [7]: 27.4 µM (inactive)
- GI50 [8]: 66.1 µM (inactive)
- GI50 [9]: 45.8 µM (inactive)
- GI50 [10]: 62.5 µM (inactive)
- GI50 [11]: > 100 µM (inactive)
- GI50 [12]: 18.8 µM (inactive)
- GI50 [13]: > 100 µM
- GI50 [19]: > 100 µM (inactive)
- GI50 [14]: 75.3 µM (inactive)
- GI50 [15]: 84.7 µM (inactive)
- GI50 [16]: 32.2 µM (inactive)
- GI50 [18]: 16.9 µM (inactive)
